A short description of series [1]: Preformulation solubility in vehicles. It is filed as physicochemical. The protocol:
Preformulation studies of swainsonine hydrochloride, bulk drug substance, and in combination with powder and semisolid fill gelatin capsules were conducted with respect to the following: hygroscopicity, pH, stability, and solubility. […] At 20% and 50% RH it absorbed 1.9% and 2.1% of water by Karl Fischer after 48 hours of storage. The moisture uptake diminishes when anhydrous powder excipients (e.g. lactose anhydrous and mannitol powder) are used to formulate the pharmaceutical active into a hard capsule.
Therefore for soft gelatin capsule formulations hydrophilic vehicles are preferred. The use of a co-solvent such as glycerin or propylene glycol in PEGs may be feasible for liquid or semisolid fills.

Series [2] deals with T1, Golgi mannosidase II in MDAY-D2 tumor cells (Mus musculus, UniProt P27046).
T1 construct: endogenous in cells; host or cells: MDAY-D2 tumor cells
T1 sequence (P27046 1-1150): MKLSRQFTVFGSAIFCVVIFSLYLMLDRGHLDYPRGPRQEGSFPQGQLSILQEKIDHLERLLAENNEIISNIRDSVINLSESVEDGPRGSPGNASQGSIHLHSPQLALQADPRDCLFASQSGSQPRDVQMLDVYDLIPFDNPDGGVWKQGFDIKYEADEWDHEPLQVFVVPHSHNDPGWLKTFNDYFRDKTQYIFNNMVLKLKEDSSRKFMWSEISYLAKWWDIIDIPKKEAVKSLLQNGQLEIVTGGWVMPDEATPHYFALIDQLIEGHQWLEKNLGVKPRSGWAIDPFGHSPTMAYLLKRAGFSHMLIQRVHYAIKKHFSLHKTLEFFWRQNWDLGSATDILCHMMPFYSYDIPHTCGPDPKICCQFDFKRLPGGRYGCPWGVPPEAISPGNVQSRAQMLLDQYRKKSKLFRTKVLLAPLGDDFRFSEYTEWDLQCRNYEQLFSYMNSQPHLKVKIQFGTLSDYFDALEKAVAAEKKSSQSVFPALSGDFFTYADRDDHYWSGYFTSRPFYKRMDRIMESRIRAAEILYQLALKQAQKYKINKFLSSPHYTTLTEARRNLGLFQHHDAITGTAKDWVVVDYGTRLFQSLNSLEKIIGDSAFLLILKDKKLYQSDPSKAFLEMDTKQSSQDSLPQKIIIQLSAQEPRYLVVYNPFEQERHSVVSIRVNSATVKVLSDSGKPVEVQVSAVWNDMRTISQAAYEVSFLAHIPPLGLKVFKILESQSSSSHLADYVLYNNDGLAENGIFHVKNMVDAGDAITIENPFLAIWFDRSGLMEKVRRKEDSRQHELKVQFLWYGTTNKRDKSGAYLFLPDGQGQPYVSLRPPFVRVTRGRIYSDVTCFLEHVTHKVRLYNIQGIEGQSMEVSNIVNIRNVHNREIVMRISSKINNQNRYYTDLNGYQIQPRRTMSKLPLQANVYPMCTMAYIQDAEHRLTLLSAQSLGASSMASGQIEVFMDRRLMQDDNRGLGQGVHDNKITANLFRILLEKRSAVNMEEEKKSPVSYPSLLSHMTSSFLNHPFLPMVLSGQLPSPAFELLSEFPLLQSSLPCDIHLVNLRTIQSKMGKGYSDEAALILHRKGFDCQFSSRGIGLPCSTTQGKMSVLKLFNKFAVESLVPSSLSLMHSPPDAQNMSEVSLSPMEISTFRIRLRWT
The series can be described thus: L-PHA cell assay for inhibition of mannosidase II in cells (alkaline phosphatase readout). It is filed as cell-based, murine. The protocol:
The test compound swainsonine hydrochloride is prepared by 0.5 serial dilution of a 40 μM stock in 50 μl of 5% fetal bovine serum (FBS) in minimum essential medium (MEM). To 50 μl of diluted test samples in 96 well plates, 10,000 MDAY-D2 tumor cells in 50 μl of 5% FBS in MEM is added to each well. The samples are incubated at 37° C. overnight in a 5% CO2 incubator. Test wells are prepared in duplicate for the addition of 25 μl/well of either 5% FBS in MEM or 5% FBS in MEM containing 100 μg/ml of L-PHA. Samples are again incubated at 37° C. overnight in a 5% CO2 incubator. The viability and/or proliferation of the cells in each well is measured using phenazine methylsulfate (PMS) and (3(4,5-dimethylthiazol-2-yl-5-(3-carboxymethoxyphenyl)-2,4,sulfophenyl)-2H tetrazolium salt (“MTS”) as described in the instructions of the Promega CellTiter 96 AQ kit. The absorption is read at 490 nm. The loss of L-PHA toxicity is directly related to entry of the drug into the cells and to inhibition of Golgi mannosidase II, and loss of L-PHA binding carbohydrate structures on the cells surface.
Cells. […]
Alkaline Phosphatase Assay. […] After 15-30 min of colour development, absorbance of the chromogenic product para-nitrophenol was measured at […] using a multiwell scanning photometer (Thermomax Multiplate Reader, Molecular Devices). […]

The structures appear in SMILES notation.

In general, IC50 refers to the midpoint of a concentration-inhibition curve. Turning to `Cl.O[C@H]1[C@H]2[C@H](O)CCCN2C[C@@H]1O` [swainsonine hydrochloride, (−)-(1S,2S,8R,8aR)-1,2,8-trihydroxyoctahydro-indolizidine hydrochloride salt], the “solubility in aqueous and hydrophilic vehicles” value in series [1] was “highly soluble”. This compound also displayed an IC50 in series [2] of 57 ± 10 nM.

These data come from patent US6395745B1, “Alkaloid halide salts of swainsonine and methods of use” (priority 1997, dated 2002).
